Results taken from ChEMBL document CHEMBL3727342, “Compounds and methods for kinase modulation, and indications therefor” (2012).

Tests used:
[1] = biological target: Serine/threonine-protein kinase B-raf (Homo sapiens, UniProt P15056, V600E); assay: Inhibition of B-raf V600E mutant (unknown origin) expressed in Sf9 cells using biotin-MEK1substrate incubated for 1 hr
[2] = biological target: Vascular endothelial growth factor receptor 2 (Homo sapiens, UniProt P35968); assay: Inhibition of KDR (unknown origin) by FRET assay
[3] = biological target: Mast/stem cell growth factor receptor Kit (Homo sapiens, UniProt P10721); assay: Inhibition of Kit (unknown origin) expressed in Escherichia coli
[4] = biological target: RAF proto-oncogene serine/threonine-protein kinase (Homo sapiens, UniProt P04049); assay: Inhibition of human C-raf using biotin-MEK1 substrate incubated for 1 hr
[5] = biological target: Serine/threonine-protein kinase B-raf (Homo sapiens, UniProt P15056); assay: Inhibition of N-terminal GST-tagged human recombinant B-Raf (416 to end residues) using biotin-MEK1 substrate incubated for 1 hr
[6] = biological target: Proto-oncogene tyrosine-protein kinase Src (Homo sapiens, UniProt P12931); assay: Inhibition of Src (unknown origin) expressed in Escherichia coli using biotin-(E4Y)3 substrate
[7] = biological target: T1, Tyrosine-protein kinase Tec (Homo sapiens, UniProt P42680); assay: Inhibition of TEC (unknown origin)
T1 sequence (P42680 whole entry): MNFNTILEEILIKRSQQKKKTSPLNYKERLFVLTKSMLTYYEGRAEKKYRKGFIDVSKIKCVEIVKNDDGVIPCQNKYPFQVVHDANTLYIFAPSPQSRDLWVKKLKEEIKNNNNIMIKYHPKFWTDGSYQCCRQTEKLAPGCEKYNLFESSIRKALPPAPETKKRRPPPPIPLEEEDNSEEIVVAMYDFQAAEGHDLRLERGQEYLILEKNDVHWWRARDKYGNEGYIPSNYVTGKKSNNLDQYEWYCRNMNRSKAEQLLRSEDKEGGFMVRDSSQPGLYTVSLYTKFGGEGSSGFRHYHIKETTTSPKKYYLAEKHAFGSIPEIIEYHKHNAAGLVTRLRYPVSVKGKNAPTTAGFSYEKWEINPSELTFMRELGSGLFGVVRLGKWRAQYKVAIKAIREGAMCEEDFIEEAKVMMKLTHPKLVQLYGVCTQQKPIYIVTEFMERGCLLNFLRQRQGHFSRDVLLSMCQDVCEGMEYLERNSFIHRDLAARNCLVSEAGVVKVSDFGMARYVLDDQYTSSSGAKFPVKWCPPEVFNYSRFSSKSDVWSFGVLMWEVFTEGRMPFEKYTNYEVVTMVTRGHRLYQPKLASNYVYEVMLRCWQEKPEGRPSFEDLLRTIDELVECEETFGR

[8] = biological target: Macrophage colony-stimulating factor 1 receptor (Homo sapiens, UniProt P07333); assay: Inhibition of Fms (unknown origin)
[9] = biological target: T2, Serine/threonine-protein kinase A-Raf (Homo sapiens, UniProt P10398); assay: Inhibition of A-Raf (unknown origin)
T2 sequence (P10398 whole entry): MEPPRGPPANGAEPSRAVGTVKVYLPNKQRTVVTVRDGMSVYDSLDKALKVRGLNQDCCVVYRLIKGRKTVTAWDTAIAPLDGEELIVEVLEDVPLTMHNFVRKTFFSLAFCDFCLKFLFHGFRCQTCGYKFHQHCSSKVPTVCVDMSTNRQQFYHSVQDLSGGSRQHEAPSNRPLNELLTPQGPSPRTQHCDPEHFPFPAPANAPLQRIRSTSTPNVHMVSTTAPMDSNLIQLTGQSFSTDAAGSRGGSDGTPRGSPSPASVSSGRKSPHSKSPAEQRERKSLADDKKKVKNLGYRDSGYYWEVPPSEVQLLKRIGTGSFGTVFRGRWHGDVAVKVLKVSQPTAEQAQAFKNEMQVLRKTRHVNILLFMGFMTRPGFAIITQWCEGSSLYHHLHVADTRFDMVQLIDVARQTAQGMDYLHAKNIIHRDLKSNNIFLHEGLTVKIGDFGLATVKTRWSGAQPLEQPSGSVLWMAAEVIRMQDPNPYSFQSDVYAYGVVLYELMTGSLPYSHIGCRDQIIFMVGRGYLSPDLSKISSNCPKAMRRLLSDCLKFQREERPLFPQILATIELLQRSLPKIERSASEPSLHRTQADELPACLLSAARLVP

[10] = biological target: High affinity nerve growth factor receptor (Homo sapiens, UniProt P04629); assay: Inhibition of TrkA (unknown origin)

Measured: IC50

Chain of RAF proto-oncogene serine/threonine-protein kinase (P04049 whole entry): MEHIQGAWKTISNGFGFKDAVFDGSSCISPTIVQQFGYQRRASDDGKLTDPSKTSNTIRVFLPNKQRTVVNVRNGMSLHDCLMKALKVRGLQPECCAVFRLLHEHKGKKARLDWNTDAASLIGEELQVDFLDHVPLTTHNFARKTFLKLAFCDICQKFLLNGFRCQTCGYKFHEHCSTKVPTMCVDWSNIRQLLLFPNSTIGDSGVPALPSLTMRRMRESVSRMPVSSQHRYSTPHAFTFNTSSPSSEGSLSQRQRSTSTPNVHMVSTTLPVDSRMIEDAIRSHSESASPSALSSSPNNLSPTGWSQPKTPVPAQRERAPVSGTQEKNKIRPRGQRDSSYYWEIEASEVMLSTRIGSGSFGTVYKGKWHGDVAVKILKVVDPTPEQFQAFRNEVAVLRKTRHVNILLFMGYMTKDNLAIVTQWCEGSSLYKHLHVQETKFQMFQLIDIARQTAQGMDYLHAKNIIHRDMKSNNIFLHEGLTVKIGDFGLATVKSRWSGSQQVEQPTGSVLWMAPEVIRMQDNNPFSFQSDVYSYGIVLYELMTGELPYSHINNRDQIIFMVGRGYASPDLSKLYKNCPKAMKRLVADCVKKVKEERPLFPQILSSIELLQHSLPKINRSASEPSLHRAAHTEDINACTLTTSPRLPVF
Chain of Serine/threonine-protein kinase B-raf (Homo sapiens, UniProt P15056) (P15056 whole entry): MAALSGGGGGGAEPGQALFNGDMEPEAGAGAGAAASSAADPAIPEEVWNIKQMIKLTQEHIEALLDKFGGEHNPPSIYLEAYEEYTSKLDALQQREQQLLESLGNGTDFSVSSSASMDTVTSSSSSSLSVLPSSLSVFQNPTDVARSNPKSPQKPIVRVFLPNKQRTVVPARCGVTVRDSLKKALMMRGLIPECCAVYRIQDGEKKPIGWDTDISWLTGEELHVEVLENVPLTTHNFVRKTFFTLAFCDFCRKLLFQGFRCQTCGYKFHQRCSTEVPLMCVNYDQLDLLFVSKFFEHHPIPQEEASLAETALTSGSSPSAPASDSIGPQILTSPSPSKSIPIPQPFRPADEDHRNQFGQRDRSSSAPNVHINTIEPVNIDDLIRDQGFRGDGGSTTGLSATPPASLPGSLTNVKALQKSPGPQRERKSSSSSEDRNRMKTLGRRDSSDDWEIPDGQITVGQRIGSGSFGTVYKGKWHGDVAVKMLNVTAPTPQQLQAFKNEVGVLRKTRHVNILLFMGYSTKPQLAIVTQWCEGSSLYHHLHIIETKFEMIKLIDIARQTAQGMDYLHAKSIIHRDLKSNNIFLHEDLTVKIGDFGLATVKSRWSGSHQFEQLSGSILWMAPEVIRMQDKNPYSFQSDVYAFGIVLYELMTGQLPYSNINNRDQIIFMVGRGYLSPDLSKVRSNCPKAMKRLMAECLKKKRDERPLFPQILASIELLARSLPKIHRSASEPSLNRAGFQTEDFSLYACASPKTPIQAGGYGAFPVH
Chain of Mast/stem cell growth factor receptor Kit (P10721 whole entry): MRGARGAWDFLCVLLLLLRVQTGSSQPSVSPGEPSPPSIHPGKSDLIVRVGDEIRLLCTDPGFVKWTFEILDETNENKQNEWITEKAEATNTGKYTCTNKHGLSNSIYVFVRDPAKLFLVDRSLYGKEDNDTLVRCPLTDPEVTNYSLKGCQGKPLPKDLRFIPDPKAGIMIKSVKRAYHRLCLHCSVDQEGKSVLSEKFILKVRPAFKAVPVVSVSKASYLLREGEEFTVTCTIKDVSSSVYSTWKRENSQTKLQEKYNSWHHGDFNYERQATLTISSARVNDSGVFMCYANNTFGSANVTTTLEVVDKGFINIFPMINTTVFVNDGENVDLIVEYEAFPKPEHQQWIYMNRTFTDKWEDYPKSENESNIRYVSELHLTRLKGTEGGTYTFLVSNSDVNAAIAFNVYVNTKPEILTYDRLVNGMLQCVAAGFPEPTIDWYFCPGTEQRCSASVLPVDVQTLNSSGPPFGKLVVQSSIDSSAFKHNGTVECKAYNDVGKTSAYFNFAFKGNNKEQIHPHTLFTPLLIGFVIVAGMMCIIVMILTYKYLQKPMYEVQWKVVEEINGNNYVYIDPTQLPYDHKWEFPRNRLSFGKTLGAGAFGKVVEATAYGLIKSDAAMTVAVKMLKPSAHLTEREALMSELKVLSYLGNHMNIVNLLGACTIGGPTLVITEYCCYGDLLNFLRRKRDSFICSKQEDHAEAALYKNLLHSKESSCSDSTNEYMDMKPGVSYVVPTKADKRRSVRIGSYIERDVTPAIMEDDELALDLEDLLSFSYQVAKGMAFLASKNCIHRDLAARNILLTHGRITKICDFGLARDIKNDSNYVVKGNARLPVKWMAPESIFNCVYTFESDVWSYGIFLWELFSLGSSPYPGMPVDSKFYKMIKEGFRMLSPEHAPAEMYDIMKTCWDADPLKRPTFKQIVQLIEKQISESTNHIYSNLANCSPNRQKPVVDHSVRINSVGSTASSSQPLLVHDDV
Chain of Serine/threonine-protein kinase B-raf (Homo sapiens, UniProt P15056, V600E) (P15056 2-766 V600E limits assumed): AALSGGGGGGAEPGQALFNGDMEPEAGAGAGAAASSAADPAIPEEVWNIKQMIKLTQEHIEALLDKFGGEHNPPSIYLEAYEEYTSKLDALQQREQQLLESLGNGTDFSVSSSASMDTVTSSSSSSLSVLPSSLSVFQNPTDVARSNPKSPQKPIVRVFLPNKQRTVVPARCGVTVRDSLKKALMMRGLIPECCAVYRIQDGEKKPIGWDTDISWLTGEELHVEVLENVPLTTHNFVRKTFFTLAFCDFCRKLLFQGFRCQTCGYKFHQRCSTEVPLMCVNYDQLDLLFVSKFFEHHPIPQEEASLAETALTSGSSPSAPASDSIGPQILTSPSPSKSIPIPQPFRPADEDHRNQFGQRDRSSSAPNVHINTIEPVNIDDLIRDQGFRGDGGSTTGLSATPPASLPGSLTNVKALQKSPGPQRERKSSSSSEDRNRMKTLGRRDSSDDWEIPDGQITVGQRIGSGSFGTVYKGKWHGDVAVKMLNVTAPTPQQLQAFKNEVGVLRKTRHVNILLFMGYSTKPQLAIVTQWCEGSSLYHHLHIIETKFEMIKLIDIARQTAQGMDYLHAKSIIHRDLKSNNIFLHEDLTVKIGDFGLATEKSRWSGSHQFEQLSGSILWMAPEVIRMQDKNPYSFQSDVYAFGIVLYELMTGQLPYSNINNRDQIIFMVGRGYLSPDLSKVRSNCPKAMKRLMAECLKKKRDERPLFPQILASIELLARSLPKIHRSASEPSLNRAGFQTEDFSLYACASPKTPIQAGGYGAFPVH
Chain of Proto-oncogene tyrosine-protein kinase Src (P12931 2-536 limits assumed): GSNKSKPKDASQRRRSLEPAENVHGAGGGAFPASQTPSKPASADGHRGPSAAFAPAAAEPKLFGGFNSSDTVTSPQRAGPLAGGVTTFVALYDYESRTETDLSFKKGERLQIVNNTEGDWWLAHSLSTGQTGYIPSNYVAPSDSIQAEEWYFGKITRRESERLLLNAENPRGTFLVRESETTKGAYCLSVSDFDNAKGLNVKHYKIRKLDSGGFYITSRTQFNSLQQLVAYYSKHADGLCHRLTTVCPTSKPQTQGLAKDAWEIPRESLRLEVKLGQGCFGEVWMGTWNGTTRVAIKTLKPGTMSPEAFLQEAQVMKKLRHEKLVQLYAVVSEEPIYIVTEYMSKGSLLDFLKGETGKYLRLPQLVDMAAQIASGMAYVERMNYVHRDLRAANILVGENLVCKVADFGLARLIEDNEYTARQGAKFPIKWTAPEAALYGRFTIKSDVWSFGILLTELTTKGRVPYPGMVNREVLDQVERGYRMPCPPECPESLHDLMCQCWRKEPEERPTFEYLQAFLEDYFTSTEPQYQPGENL
Chain of Vascular endothelial growth factor receptor 2 (P35968 whole entry): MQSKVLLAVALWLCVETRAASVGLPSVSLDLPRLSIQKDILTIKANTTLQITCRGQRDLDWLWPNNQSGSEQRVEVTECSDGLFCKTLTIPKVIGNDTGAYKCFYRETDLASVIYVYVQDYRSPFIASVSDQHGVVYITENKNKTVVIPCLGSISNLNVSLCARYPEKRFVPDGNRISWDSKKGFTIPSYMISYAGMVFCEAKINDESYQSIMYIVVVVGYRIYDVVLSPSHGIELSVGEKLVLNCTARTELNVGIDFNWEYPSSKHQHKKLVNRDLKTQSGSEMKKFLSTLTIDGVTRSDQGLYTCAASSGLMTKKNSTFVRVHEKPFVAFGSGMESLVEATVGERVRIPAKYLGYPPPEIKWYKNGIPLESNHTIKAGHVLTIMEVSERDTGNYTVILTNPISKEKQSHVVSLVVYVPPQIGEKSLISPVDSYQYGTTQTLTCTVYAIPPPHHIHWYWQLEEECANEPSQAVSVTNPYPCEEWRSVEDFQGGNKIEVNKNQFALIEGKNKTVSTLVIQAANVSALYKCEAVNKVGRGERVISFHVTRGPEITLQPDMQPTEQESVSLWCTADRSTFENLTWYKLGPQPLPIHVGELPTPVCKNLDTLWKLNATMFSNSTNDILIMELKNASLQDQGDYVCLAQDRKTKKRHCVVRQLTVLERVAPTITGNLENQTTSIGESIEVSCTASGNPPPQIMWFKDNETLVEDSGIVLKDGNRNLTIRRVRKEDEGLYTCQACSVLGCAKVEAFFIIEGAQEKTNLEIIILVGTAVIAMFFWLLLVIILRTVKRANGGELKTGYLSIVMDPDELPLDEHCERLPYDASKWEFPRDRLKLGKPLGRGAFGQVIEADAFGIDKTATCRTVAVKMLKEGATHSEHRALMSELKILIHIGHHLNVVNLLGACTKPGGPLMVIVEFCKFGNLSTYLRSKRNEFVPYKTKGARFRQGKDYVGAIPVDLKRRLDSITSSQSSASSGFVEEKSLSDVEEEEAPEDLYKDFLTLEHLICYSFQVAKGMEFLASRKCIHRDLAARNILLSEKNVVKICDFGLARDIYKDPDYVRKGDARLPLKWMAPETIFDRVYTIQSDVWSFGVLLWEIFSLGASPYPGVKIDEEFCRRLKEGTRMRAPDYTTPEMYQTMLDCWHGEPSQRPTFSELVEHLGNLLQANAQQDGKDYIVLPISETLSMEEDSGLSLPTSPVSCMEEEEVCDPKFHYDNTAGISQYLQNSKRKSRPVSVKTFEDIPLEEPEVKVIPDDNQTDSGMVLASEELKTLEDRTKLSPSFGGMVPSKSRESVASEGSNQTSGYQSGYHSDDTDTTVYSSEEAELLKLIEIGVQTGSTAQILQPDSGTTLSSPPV

O=C(c1cccc(NS(=O)(=O)C2CCC2)c1F)c1c[nH]c2ncncc12
≤ 10 µM: [1] | [2] | [3]

CN(C)S(=O)(=O)Nc1ccc(F)c(C(=O)c2c[nH]c3ncncc23)c1F
≤ 10 µM: [1] | [4] | [2]

O=C(c1cccc(NS(=O)(=O)c2cc(F)ccc2F)c1F)c1c[nH]c2ncncc12
≤ 10 µM: [5] | [4] | [2] | [3] | [6]

CCCC(C)S(=O)(=O)Nc1cccc(C(=O)c2c[nH]c3ncncc23)c1F (configuration not stated)
≤ 10 µM: [2] | [3]

CC(C)CS(=O)(=O)Nc1ccc(F)c(C(=O)c2c[nH]c3ncncc23)c1F
≤ 10 µM: [1] | [4] | [3]

O=C(c1cccc(NS(=O)(=O)C2CCCCC2)c1F)c1c[nH]c2ncncc12
≤ 10 µM: [1] | [4] | [3]

O=C(c1c(F)ccc(NS(=O)(=O)c2ccc(C(F)(F)F)cc2)c1F)c1c[nH]c2ncncc12
≤ 10 µM: [1] | [4] | [2] | [6] | [7]

CCS(=O)(=O)Nc1ccc(F)c(C(=O)c2c[nH]c3ncncc23)c1F
≤ 10 µM: [1] | [4]

O=C(c1c(F)ccc(NS(=O)(=O)c2cc(F)ccc2F)c1F)c1c[nH]c2ncncc12
≤ 10 µM: [5] | [4] | [2] | [3]

O=C(c1c(F)ccc(NS(=O)(=O)N2CCOCC2)c1F)c1c[nH]c2ncncc12
≤ 10 µM: [1] | [4] | [8] | [3]

O=C(c1c(F)ccc(NS(=O)(=O)c2cccc(F)c2)c1F)c1c[nH]c2ncncc12
≤ 10 µM: [5] | [4]

COc1ncnc2[nH]cc(C(=O)c3cccc(NS(=O)(=O)c4ccc(C(F)(F)F)cc4)c3F)c12
≤ 10 µM: [5] | [4] | [2]

CCC(C)S(=O)(=O)Nc1cccc(C(=O)c2c[nH]c3ncncc23)c1F (configuration not stated)
≤ 10 µM: [1] | [2] | [3]

CC(C)(C)c1ccc(S(=O)(=O)Nc2ccc(F)c(C(=O)c3c[nH]c4ncncc34)c2F)cc1
≤ 10 µM: [1] | [4] | [2]

O=C(c1c(F)ccc(NS(=O)(=O)c2ccccc2F)c1F)c1c[nH]c2ncncc12
≤ 10 µM: [5] | [4] | [2]

CC(C)c1ccc(S(=O)(=O)Nc2ccc(F)c(C(=O)c3c[nH]c4ncncc34)c2F)cc1
≤ 10 µM: [9] | [1] | [4] | [2]

O=C(c1c(F)ccc(NS(=O)(=O)C2CCC2)c1F)c1c[nH]c2ncncc12
≤ 10 µM: [1] | [4] | [2]

O=C(c1cccc(NS(=O)(=O)C2CCCC2)c1F)c1c[nH]c2ncncc12
≤ 10 µM: [1] | [4] | [2]

O=C(c1cccc(NS(=O)(=O)c2ccc(C(F)(F)F)cc2)c1F)c1c[nH]c2ncncc12
≤ 10 µM: [9] | [5] | [4]

CN(C)S(=O)(=O)Nc1cccc(C(=O)c2c[nH]c3ncncc23)c1F
≤ 10 µM: [1] | [3]

O=C(c1c(F)ccc(NS(=O)(=O)c2cccc(OC(F)F)c2)c1F)c1c[nH]c2ncncc12
≤ 10 µM: [9] | [1] | [4]

O=C(c1cccc(NS(=O)(=O)c2ccc(F)cc2F)c1F)c1c[nH]c2ncncc12
≤ 10 µM: [1] | [4] | [2]

O=C(c1c(F)ccc(NS(=O)(=O)CC(F)(F)F)c1F)c1c[nH]c2ncncc12
≤ 10 µM: [1] | [4]

O=C(c1c(F)ccc(NS(=O)(=O)c2ccccn2)c1F)c1c[nH]c2ncncc12
≤ 10 µM: [1] | [4]

CCCS(=O)(=O)Nc1ccc(F)c(C(=O)c2c[nH]c3ncnc(C)c23)c1F
≤ 10 µM: [1] | [4] | [8] | [2] | [3] | [6]

O=S(=O)(Nc1ccc(F)c(C(O)c2c[nH]c3ncnc(C4CC4)c23)c1F)c1ccc(C(F)(F)F)cc1 (configuration not stated)
≤ 10 µM: [8]

CCCc1ccc(S(=O)(=O)Nc2ccc(F)c(C(=O)c3c[nH]c4ncncc34)c2F)cc1
≤ 10 µM: [9] | [5] | [4]

O=C(c1cccc(NS(=O)(=O)c2cccc(F)c2)c1F)c1c[nH]c2ncncc12
≤ 10 µM: [5] | [4]

CC(C)S(=O)(=O)Nc1ccc(F)c(C(=O)c2c[nH]c3ncncc23)c1F
≤ 10 µM: [1] | [2]

CCCS(=O)(=O)Nc1cccc(C(=O)c2c[nH]c3ncncc23)c1F
≤ 10 µM: [9] | [1] | [4]

CC(C)CS(=O)(=O)Nc1cccc(C(=O)c2c[nH]c3ncncc23)c1F
≤ 10 µM: [1] | [4]

O=C(c1c(F)ccc(NS(=O)(=O)c2ccc(OC(F)F)cc2)c1F)c1c[nH]c2ncncc12
≤ 10 µM: [9] | [1] | [4]

O=C(c1cccc(NS(=O)(=O)c2ccc(F)cc2)c1F)c1c[nH]c2ncncc12
≤ 10 µM: [1]

O=C(c1cccc(NS(=O)(=O)c2ccccc2F)c1F)c1c[nH]c2ncncc12
≤ 10 µM: [5] | [4] | [2] | [6]

O=C(c1cccc(NS(=O)(=O)N2CCOCC2)c1F)c1c[nH]c2ncncc12
≤ 10 µM: [1] | [4] | [3] | [10]

O=C(c1c(F)ccc(NS(=O)(=O)c2ccc(F)cc2)c1F)c1c[nH]c2ncncc12
≤ 10 µM: [1] | [4]

COc1ncnc2[nH]cc(C(=O)c3c(F)ccc(NS(=O)(=O)c4ccc(C(F)(F)F)cc4)c3F)c12
≤ 10 µM: [5] | [4] | [6]

CCCS(=O)(=O)Nc1ccc(F)c(C(=O)c2c[nH]c3ncncc23)c1F
≤ 10 µM: [9] | [5] | [4] | [7]

O=C(c1c(F)ccc(NS(=O)(=O)c2ccc(F)cc2F)c1F)c1c[nH]c2ncncc12
≤ 10 µM: [1] | [4] | [8] | [2]

O=C(c1cccc(NS(=O)(=O)c2cccnc2)c1F)c1c[nH]c2ncncc12
≤ 10 µM: [1] | [4]

O=C(c1c(F)ccc(NS(=O)(=O)c2c(F)cccc2F)c1F)c1c[nH]c2ncncc12
≤ 10 µM: [1] | [4] | [2]

O=C(c1c(F)ccc(NS(=O)(=O)CCC(F)(F)F)c1F)c1c[nH]c2ncncc12
≤ 10 µM: [1] | [4] | [3]

CCCS(=O)(=O)Nc1cccc(C(=O)c2c[nH]c3ncnc(OC)c23)c1F
≤ 10 µM: [5] | [4] | [2] | [3] | [6]

O=C(c1c(F)ccc(NS(=O)(=O)C2CCCCC2)c1F)c1c[nH]c2ncncc12
≤ 10 µM: [1] | [4] | [8] | [2] | [3]

CCC(C)S(=O)(=O)Nc1ccc(F)c(C(=O)c2c[nH]c3ncncc23)c1F (configuration not stated)
≤ 10 µM: [1] | [4]

O=C(c1cccc(NS(=O)(=O)N2CCCC2)c1F)c1c[nH]c2ncncc12
≤ 10 µM: [1] | [4]

O=C(c1cccc(NS(=O)(=O)CC(F)(F)F)c1F)c1c[nH]c2ncncc12
≤ 10 µM: [1] | [4] | [10]
